Results on twelve molecules are retold here after patent publication US9611278B2 (Merck Sharp & Dohme Corp., priority 2013, dated 2017).

The assay deals with T1, sGC α1/β1 heterodimer stably expressed in CHO-K1 cells (CHO-K1/sGC) (Homo sapiens, UniProt Q02108+Q02153).
T1 construct: expressed in transfected cells
T1 sequence (Q02108 1-690): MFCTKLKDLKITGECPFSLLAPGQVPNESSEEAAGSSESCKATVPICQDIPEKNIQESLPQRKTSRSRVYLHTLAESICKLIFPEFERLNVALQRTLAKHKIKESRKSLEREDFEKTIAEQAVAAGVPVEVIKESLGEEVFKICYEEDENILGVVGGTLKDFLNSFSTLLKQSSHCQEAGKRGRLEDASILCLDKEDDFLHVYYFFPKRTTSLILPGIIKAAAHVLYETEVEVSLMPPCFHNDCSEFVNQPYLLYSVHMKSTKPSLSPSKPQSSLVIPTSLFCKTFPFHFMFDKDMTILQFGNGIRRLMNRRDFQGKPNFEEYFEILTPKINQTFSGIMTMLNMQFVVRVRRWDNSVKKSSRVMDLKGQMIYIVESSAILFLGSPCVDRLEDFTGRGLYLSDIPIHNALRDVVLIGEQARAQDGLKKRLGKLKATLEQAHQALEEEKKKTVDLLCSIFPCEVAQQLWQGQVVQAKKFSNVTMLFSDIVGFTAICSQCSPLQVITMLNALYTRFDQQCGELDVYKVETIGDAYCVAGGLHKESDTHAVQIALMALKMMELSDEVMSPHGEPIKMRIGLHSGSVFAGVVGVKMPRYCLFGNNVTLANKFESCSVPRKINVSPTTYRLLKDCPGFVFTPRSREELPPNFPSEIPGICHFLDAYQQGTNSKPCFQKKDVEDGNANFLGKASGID
T1 sequence (Q02153 1-619): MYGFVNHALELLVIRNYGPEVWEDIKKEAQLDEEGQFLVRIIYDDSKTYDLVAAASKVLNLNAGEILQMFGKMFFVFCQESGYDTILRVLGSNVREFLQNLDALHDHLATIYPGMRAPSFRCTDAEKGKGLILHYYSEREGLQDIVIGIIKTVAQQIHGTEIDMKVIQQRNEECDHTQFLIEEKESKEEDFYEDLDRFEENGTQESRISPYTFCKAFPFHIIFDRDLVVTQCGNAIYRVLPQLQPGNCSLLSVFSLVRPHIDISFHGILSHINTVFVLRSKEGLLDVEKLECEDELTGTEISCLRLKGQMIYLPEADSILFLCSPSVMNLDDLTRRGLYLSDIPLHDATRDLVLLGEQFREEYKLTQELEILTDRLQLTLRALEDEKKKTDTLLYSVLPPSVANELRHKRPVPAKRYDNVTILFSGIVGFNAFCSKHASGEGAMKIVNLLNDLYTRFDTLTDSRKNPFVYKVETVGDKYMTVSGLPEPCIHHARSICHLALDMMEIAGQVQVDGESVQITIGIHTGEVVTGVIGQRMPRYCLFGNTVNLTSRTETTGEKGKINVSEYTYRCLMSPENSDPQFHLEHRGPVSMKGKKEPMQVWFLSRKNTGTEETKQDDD
Nature of the assay: Cell-based sGC Functional Assay (CASA Assay). To be noted: for Emax: CHO-K1, activation as percentage of maximum cGMP production of Compound A (set to 100%), read-out: % Act.; for EC50: inflection point of cGMP generation in CHO-K1/sGC cells, 4P fit, 1 hr at 37° C., read-out: IP. The text has this:
sGC is a heme-containing enzyme that converts GTP to secondary messenger cGMP. Increases in cGMP levels affect several physiological processes including vasorelaxation through multiple downstream pathways. […] Heme-dependent activators (HDAs) preferentially activate sGC containing a ferrous heme group. To determine the effect of sGC activators on enzyme activity, the CASA assay was developed to monitor the generation of cGMP in a cell line that stably expresses the heterodimeric sGC protein.
A CHO-K1 cell line stably expressing the sGC α1/β1 heterodimer was generated using a standard transfection protocol. CHO-K1 cells were transfected with plasmids pIREShyghsGCα1 and pIRESneo-hsGCβ1 simultaneously using FUGENE reagent. Clones that stably express both subunits were selected with hygromycin and neomycin for ˜2 weeks. Clone #7 was chosen for the assay and was designated CHO-K1/sGC. CHO-K1/sGC cells were maintained in F-K12 medium containing 10% heat-inactivated Fetal Bovine Serum (FBS), 100 μg/mL penicillin/streptomycin, 0.5 mg/mL hygromycin and 0.25 mg/mL G418. The cells were then cryopreserved in LN2. On the day of the assay, cells thawed and resuspended in EBSS Assay Buffer (EAB, Sigma, E3024) supplemented with 5 mM MgCl2, 10 mM HEPES (4-(2-hydroxyethyl)piperazine-1-ethanesulfonic acid) and 0.05% BSA (bovine serum albumin) and cell density was then adjusted to 4×10^5/mL with EAB. IBMX (3-isobutyl-1-methylxanthin, 0.5 mM) was added to inhibit degradation of cGMP. Compounds were diluted from DMSO stock solutions and added to the assay at a final DMSO concentration of 2.5%. Cells were incubated with compounds in the presence and absence of 1 μM of Diethylenetriamine/nitric oxide adduct (DETA-NO; Sigma, 17018) for 1 hr at 37° C. At the end of the incubation period, the reaction was terminated and the cells were lysed with the detection reagents from Cisbio Kits. The level of intracellular cGMP was determined using an HTRF-based assay kit (CisBio, 62GM2PEC), which detects the displacement of a fluorescence labeled cGMP from its specific antibody. The cGMP produced by test compounds was directly compared to the maximum cGMP production (this value was set to equal 100% activation.) of the published sGC-HDA Compound A:
(Example 1 in WO 2010/065275, published Jun. 10, 2010). The test compounds' activity were then expressed as a percentage of Compound A, the standard in every experiment. This percent activation was calculated either in the presence or absence of DETA-NO which was then plotted. IP and maximum fold induction was derived using ADA analysis software for 4P fit.

Regarding `Cn1ncc2c(-c3nc(N)c4c(n3)NC(=O)C4(C)c3c[nH]nn3)nc(CCC(F)(F)C(F)(F)F)nc21` (single isomer, unassigned) [Example 60, 4-Amino-S-methyl-2-(1-methyl-6-(3,3,4,4,4-pentafluorobutyl)-1H-pyrazolo[3,4-d]pyrimidin-4-yl)-5-(1H-1,2,3-triazol-4-yl)-5,7-dihydro-6H-pyrrolo[2,3-d]pyrimidin-6-one], the Emax is 136% and the EC50 stood at 933 nM.
The matching figures for `Cn1cc(C2(C3CC3)C(=O)Nc3nc(-c4nc(CCCC(F)(F)F)nc5c4cnn5C)nc(N)c32)nn1` (single isomer, unassigned) [Example 62, 4-Amino-5-cyclopropyl-5-(1-methyl-1H-1,2,3-triazol-4-yl)-2-(1-methyl-6-(4,4,4-trifluorobutyl)-1H-pyrazolo[3,4-d]pyrimidin-4-yl)-5,7-dihydro-6H-pyrrolo[2,3-d]pyrimidin-6-one]: 99% and 800 nM.
Consider `CCC1(c2cn(C(C)C)nn2)C(=O)Nc2nc(-c3nc(CCC(F)(F)C(F)(F)F)nc4c3cnn4C)nc(N)c21` (single isomer, unassigned) [Example 68, 4-Amino-5-ethyl-5-(1-isopropyl-1H-1,2,3-triazol-4-yl)-2-(1-methyl-6-(3,3,4,4,4-pentafluorobutyl)-1H-pyrazolo[3,4-d]pyrimidin-4-yl)-5,7-dihydro-6H-pyrrolo[2,3-d]pyrimidin-6-one], for which the Emax came to 133% and the EC50 stood at 811 nM.
On to `CCCn1cc(C2(C)C(=O)Nc3nc(-c4nc(CCC(F)(F)C(F)(F)F)nc5c4cnn5C)nc(N)c32)nn1` (single isomer, unassigned) [Example 71, 4-Amino-5-methyl-2-(1-methyl-6-(3,3,4,4,4-pentafluorobutyl)-1H-pyrazolo[3,4-d]pyrimidin-4-yl)-5-(1-propyl-1H-1,2,3-triazol-4-yl)-5,7-dihydro-6H-pyrrolo[2,3-d]pyrimidin-6-one], for which the Emax came to 169% and the EC50 is 217 nM.
Regarding `CCCn1cc(C2(CC)C(=O)Nc3nc(-c4nc(CCC(F)(F)C(F)(F)F)nc5c4cnn5C)nc(N)c32)nn1` (single isomer, unassigned) [Example 72, 4-Amino-5-ethyl-2-(1-methyl-6-(3,3,4,4,4-pentafluorobutyl)-1H-pyrazolo[3,4-d]pyrimidin-4-yl)-5-(1-propyl-1H-1,2,3-triazol-4-yl)-5,7-dihydro-6H-pyrrolo[2,3-d]pyrimidin-6-one], the Emax is 121% and the EC50 amounted to 503 nM.
With `Cn1ncc2c(-c3nc(N)c4c(n3)NC(=O)C4(C)c3cn(C4CCC4)nn3)nc(CCC(F)(F)C(F)(F)F)nc21` (single isomer, unassigned) [Example 74, 4-Amino-5-(1-cyclobutyl-1H-1,2,3-triazol-4-yl)-5-methyl-2-(1-methyl-6-(3,3,4,4,4-pentafluorobutyl)-1H-pyrazolo[3,4-d]pyrimidin-4-yl)-5,7-dihydro-6H-pyrrolo[2,3-d]pyrimidin-6-one], the Emax was determined as 120% and the EC50 was found to be 78 nM.
As to `C=CCn1cc(C2(C)C(=O)Nc3nc(-c4nc(CCC(F)(F)C(F)(F)F)nc5c4cnn5C)nc(N)c32)nn1` (single isomer, unassigned) [Example 75, 5-(1-allyl-1H-1,2,3-triazol-4-yl)-4-amino-5-methyl-2-(1-methyl-6-(3,3,4,4,4-pentafluorobutyl)-1H-pyrazolo[3,4-d]pyrimidin-4-yl)-5,7-dihydro-6H-pyrrolo[2,3-d]pyrimidin-6-one], the Emax is 139% and the EC50 was determined as 175 nM.
The like results for `[2H]C([2H])([2H])n1cc(C2(C)C(=O)Nc3nc(-c4nc(CCC(F)(F)C(F)(F)F)nc5c4cnn5C([2H])([2H])[2H])nc(N)c32)nn1` (single isomer, unassigned) [Example 76, 4-Amino-5-methyl-5-(1-(methyl-d3)-1H-1,2,3-triazol-4-yl)-2-(1-(methyl-d3)-6-(3,3,4,4,4-pentafluorobutyl)-1H-pyrazolo[3,4-d]pyrimidin-4-yl)-5,7-dihydro-6H-pyrrolo[2,3-d]pyrimidin-6-one] were, in that order, 148% and 168 nM.
Take `[2H]C([2H])([2H])n1cc(C2(C)C(=O)Nc3nc(-c4nc(CCC(F)(F)C(F)(F)F)nc5c4cnn5C)nc(N)c32)nn1` (single isomer, unassigned) [Example 77, 4-Amino-5-methyl-2-(1-methyl-6-(3,3,4,4,4-pentafluorobutyl)-1H-pyrazolo[3,4-d]pyrimidin-4-yl)-5-(1-(methyl-d3)-1H-1,2,3-triazol-4-yl)-5,7-dihydro-6H-pyrrolo[2,3-d]pyrimidin-6-one]: the Emax is 157% and the EC50 came out at 168 nM.
For `[2H]C([2H])([2H])n1ncc2c(-c3nc(N)c4c(n3)NC(=O)C4(C)c3ccc(F)cn3)nc(CCC(F)(F)C(F)(F)F)nc21` (stereo not drawn) [Example 2, 4-Amino-5-(5-fluoropyridin-2-yl)-5-methyl-2-(1-(methyl-d3)-6-(3,3,4,4,4-pentafluorobutyl)-1H-pyrazolo[3,4-d]pyrimidin-4-yl)-5H-pyrrolo[2,3-d]pyrimidin-6(7H)-one], the Emax was determined as 135% and the EC50 is 72 nM.
The matching figures for `Cc1noc(C2(C)C(=O)Nc3nc(-c4nc(Cc5cccc(F)c5F)nc5c4cnn5C)nc(N)c32)n1` (stereo not drawn) [Example 5, 4-Amino-2-(6-(2,3-difluorobenzyl)-1-methyl-1H-pyrazolo[3,4-d]pyrimidin-4-yl)-5-methyl-5-(3-methyl-1,2,4-oxadiazol-5-yl)-5,7-dihydro-6H-pyrrolo[2,3-d]pyrimidin-6-one]: 88% and 10 nM.
The like results for `CC(CC(F)(F)F)c1nc(-c2nc(N)c3c(n2)NC(=O)C3(C)c2ccc(F)cn2)c2cnn(C)c2n1` (stereo not drawn) [Example 6, 4-Amino-5-(5-fluoropyridin-2-yl)-5-methyl-2-(1-methyl-6-(4,4,4-trifluorobutan-2-yl)-1H-pyrazolo[3,4-d]pyrimidin-4-yl)-5,7-dihydro-6H-pyrrolo[2,3-d]pyrimidin-6-one] were, in that order, 137% and 604 nM.
